Here are results for three compounds from PMC11625940, “An Improved Test Method for Assaying the Inhibition of Bioflavonoids on Xanthine Oxidase Activity in vitro” (ChemistryOpen, 2024).

Structures are written as SMILES.

Test [1] deals with T1, Xanthine oxidase (XOD).
T1 construct: gene XDH; described in the introduction as a 290 kDa homodimer of mammals; the high specific activity could also fit a microbial enzyme
Nature of the test: UV assay of uric acid formation at […] nm, test method C (inhibitor added to running reaction after […] min, superoxide present). The class given is biochemical. To be noted: xanthine substrate, sodium pyrophosphate buffer pH 7.5, 37 °C, unreliable: compound may be oxidised to myricetin by superoxide, no IC50 reached in test methods A and B.

The target in test [2] is T1, Xanthine oxidase (XOD). Put plainly: UV assay of uric acid formation at […] nm, test method A (inhibitor preincubated with enzyme, started by xanthine). The class given is biochemical. To be noted: xanthine substrate, sodium pyrophosphate buffer pH 7.5, 37 °C, other methods (B; C, inhibitor added to the running reaction with superoxide) also printed in the row, read-out: IC50 ^[a]/μmol L^-1.

As to `O=C1c2c(O)cc(O)cc2O[C@H](c2cc(O)c(O)c(O)c2)[C@H]1O` [Dihydromyricetin], the “IC50 ^[c]/μmol L^-1” value on Xanthine oxidase (XOD) [1] was 20.96 µM.
As to `O=c1cc(-c2ccc(O)c(O)c2)oc2cc(O)cc(O)c12` [Luteolin], on Xanthine oxidase (XOD) [2], the IC50 was determined as 4.34 µM.
Turning to `O=c1c(O)c(-c2cc(O)c(O)c(O)c2)oc2cc(O)cc(O)c12` [Myricetin], the IC50 on Xanthine oxidase (XOD) [2] came to 5 µM.
